# System: incontinence-associated dermatitis (IAD) lesions induced with 5% pancreatin
# Test: Incontinence-associated dermatitis (IAD) rabbit model, treatment of induced ear lesions
# Type: in vivo
# Conditions: rabbit ears; 1% clotrimazole, 1% hydrocortisone, 15% zinc oxide applied separately vs combination
# Experimental: A rabbit model of IAD was also investigated. A combination cream (DGBC) was used to assess healing of an animal model of IAD compared with three active components of the cream. Twenty-six IAD lesions were induced and each lesion was treated with the individual components and the combination cream.
# Rabbits were purchased from Charles River to be used for these experiments. […] Additionally, the animals' ears were used to maximize the sample size, effectively halving the number of animals required for the project. Twenty-two female rabbits were purchased: 2 for the pilot phase and 18 for phase 2 of the project. The study was conducted, and animals were housed at the AVC Research Facility as per CCAC guidelines. The experimental treatment utilized a therapeutic cream composed of 1.0% hydrocortisone, 1.0% clotrimazole and 15.0% zinc oxide (DGBC).
# Induction of IAD. 1.Sedation of rabbit: Midazolam 0.5 mg/kg intramuscularly (IM) plus buprenorphine 0.03 mg/kg IM. Animals were assessed for sedation prior to gauze application. Animals requiring further sedation were sedated with ketamine 5 mg/kg IM. 2.Cleaning of the ear: The skin of both inner ears of each animal were cleaned with a 2×2 gauze saturated with 3 ml isopropyl alcohol and allowed to air dry for 5 minutes before applying the saturated gauze. The animal were held for a period of 5 min to ensure the ear was dry prior to application of IAD induction. 3.Application of gauze with 5% pancreatin to induce IAD: both ears of the animals were irritated as follows: Sterile 2×2 gauze was used as a carrier for the irritant. The gauze was saturated with 3 ml of pancreatin. 4.Wrapping of the ear: Both ears of each animal had gauze with pancreatin applied to the medial surface. […] 5.Monitoring period of 24 h: After 24 hours the bandage and occlusive dressing was removed and the ears assessed for sufficient irritation. […] Rabbits assessed as painful 1 hour after administration of gabapentin were treated with buprenorphine 0.03 mg/kg SC and be reassessed for pain in 1 hour. […]
row,Structure (SMILES),effect in treating IAD compared with DGBC therapeutic cream
1,"Clc1ccccc1C(c1ccccc1)(c1ccccc1)n1ccnc1 [clotrimazole, Clotrimazole]",do not produce the same effect
2,"C[C@]12CCC(=O)C=C1CC[C@@H]1[C@@H]2[C@@H](O)C[C@@]2(C)[C@H]1CC[C@]2(O)C(=O)CO [hydrocortisone, 11β, 17α,21-Trihydroxypregn-4-ene-3,20-dione]",do not produce the same effect
3,"[O]=[Zn] [zinc oxide, Zinc oxide]",do not produce the same effect

# Reference: US20250375474A1, “COMPOSITIONS FOR THE PREVENTION AND TREATMENT OF MOISTURE-ASSOCIATED SKIN DAMAGE” (SCOTIADERM INC., priority 2022, published 2025)
